Test results: patent US10787413B2, “Derivatives of curcuminoids and use thereof as an anticancer agent” (CHINA MEDICAL UNIVERSITY, priority 2016, dated 2020)
Read-outs that look alike come from different tables or passages of the source.

Tests used:
[1] = system: PC3 prostate cancer cell; assay: MTT cell viability assay, PC3 prostate cancer cell; format: cell-based
Procedure: (§1) Cell viability was evaluated by measuring the reduction in MTT to yield blue formazan. Cells were cultured in 96-well plates, allowed to attach overnight, and then treated with compounds. After treatment, MTT solution (1 mg/ml) was added to each well, and plates were incubated for another 4 h. Medium were removed, blue formazan was dissolved in DMSO, and the absorbance was read at 570 nm^20.

[2] = system: HCT-116 colon cancer cell; assay: MTT cell viability assay, HCT-116 colon cancer cell; format: cell-based
Procedure: as §1

[3] = system: MDA-MB-231 breast cancer cell; assay: MTT cell viability assay, MDA-MB-231 breast cancer cell; format: cell-based, human
Procedure: Cell viability was evaluated by measuring the reduction in MTT to yield blue formazan. Cells were cultured in 96-well plates, allowed to attach overnight, and then treated with compounds. After treatment, MTT solution (1 mg/ml) was added to each well, and plates were incubated for another 4 h.

[4] = PC-3, treated 24 hours, read-out: IC50 24 hours
[5] = PC-3, treated 48 hours, read-out: IC50 48 hours
[6] = PC-3, treated 72 hours, read-out: IC50 72 hours
[7] = Homo sapiens, HCT-116, treated 24 hours, read-out: IC50 24 hours
[8] = Homo sapiens, HCT-116, treated 72 hours, read-out: IC50 72 hours
[9] = Homo sapiens, MDA-MB-231, 24 h, MDA-MB-231, treated 24 hours, read-out: IC50 24 hours
[10] = Homo sapiens, MDA-MB-231, 72 h, MDA-MB-231, treated 72 hours, read-out: IC50 72 hours
[11] = Homo sapiens, HCT-116, treated 48 hours, read-out: IC50 48 hours
[12] = Homo sapiens, MDA-MB-231, 48 h, MDA-MB-231, treated 48 hours, read-out: IC50 48 hours
[13] = HCT-116, treated 24 hours, read-out: IC50 24 hours
[14] = HCT-116, treated 48 hours, read-out: IC50 48 hours
[15] = HCT-116, treated 72 hours, read-out: IC50 72 hours
[16] = MDA-MB-231, treated 24 hours, read-out: IC50 24 hours
[17] = MDA-MB-231, treated 48 hours, read-out: IC50 48 hours
[18] = MDA-MB-231, treated 72 hours, read-out: IC50 72 hours

IC50 [1, 4]	IC50 [1, 5]	IC50 [1, 6]	IC50 [2, 7]	IC50 [2, 8]	IC50 [3, 9]	IC50 [3, 10]	IC50 [2, 11]	IC50 [3, 12]	IC50 [3, 18]	SMILES	IC50 [2, 13]	IC50 [2, 14]	IC50 [2, 15]	IC50 [3, 16]	IC50 [3, 17]
67.7 ± 1.76 µM	52.2 ± 1.23 µM	51.3 ± 0.39 µM	64.7 ± 1.56 µM	25.1 ± 0.5 µM	83 ± 0.17 µM	17.3 ± 0.1 µM	–	–	–	COc1ccc(/C=C/C(=O)C(COC(=O)C(C)(CO)CO)(COC(=O)C(C)(CO)CO)C(=O)/C=C/c2ccc(OC)c(OC)c2)cc1OC [Compound 43, 2,2-bis((E)-3-(3,4-dimethoxyphenyl)acryloyl)propane-1,3-diylbis(3-hydroxy-2-(hydroxymethyl)-2-methylpropanoate)]	–	–	–	–	–
17.1 ± 1.74 µM	11.5 ± 0.96 µM	6.7 ± 0.75 µM	14.5 ± 1.01 µM	3.92 ± 0.24 µM	28.5 ± 5.29 µM	4.9 µM	–	–	–	C#CCC(CC#C)(C(=O)/C=C/c1ccc(OC(=O)C(C)(CO)CO)c(OC)c1)C(=O)/C=C/c1ccc(OC(=O)C(C)(CO)CO)c(OC)c1 [Compound 35d, ((1E,6E)-3,5-Dioxo-4,4-di(prop-2-yn-1-yl)hepta-1,6-diene-1,7-diyl)bis(2-methoxy-4,1-phenylene) bis(3-hydroxy-2-(hydroxymethyl)-2-methylpropanoate)]	–	–	–	–	–
46.5 ± 0.48 µM	34.9 ± 0.2 µM	32.7 ± 0.56 µM	39.59 ± 0.23 µM	9.86 ± 0.01 µM	47.3 ± 1.31 µM	17.5 ± 1.62 µM	18.4 ± 0.62 µM	21.1 ± 1.01 µM	–	COc1cc(/C=C/C(=O)CC(=O)/C=C/c2ccc(OC(=O)C(CO)(CO)CO)c(OC)c2)ccc1O [Compound 38a, 4-((1E,6E)-7-(4-hydroxy-3-methoxyphenyl)-3,5-dioxohept-1,6-den-1-yl)-2-methoxyphenyl 3-hydroxy-2,2-bis(hydroxymethyl)propanoate]	–	–	–	–	–
15.9 ± 2.23 µM	8.74 ± 0.01 µM	7.03 ± 0.12 µM	–	–	–	–	–	–	3.85 µM	CCC(CO)(CO)C(=O)Oc1cc(/C=C/C(=O)/C=C(O)/C=C/c2ccc(OC)c(O)c2)ccc1OC [Compound 25]	7.62 ± 0.41 µM	4.77 ± 0.1 µM	3.64 ± 0.03 µM	9.64 ± 0.07 µM	4.94 ± 0.03 µM
37 ± 0.56 µM	29.7 ± 2.83 µM	8.1 ± 1.56 µM	7.43 ± 0.1 µM	4.38 ± 0.26 µM	9.48 ± 0.44 µM	7.22 ± 0.41 µM	4.69 ± 0.49 µM	7.79 ± 0.61 µM	–	CCC(CO)(CO)C(=O)Oc1ccc(/C=C/C(=O)CC(=O)/C=C/c2ccc(OC(=O)C(CC)(CO)CO)c(OC(F)(F)F)c2)cc1OC(F)(F)F [Compound 29, ((1E,6E)-3,5-dioxohepta-1,6-diene-1,7-diyl)bis(2-(trifluoromethoxy)-4,1-phenylene) bis(2,2-bis(hydroxymethyl)butanoate)]	–	–	–	–	–
3.68 ± 0.11 µM	3.07 ± 0.37 µM	0.85 ± 0.07 µM	6.33 ± 1.01 µM	1.51 ± 0.55 µM	7.21 ± 0.18 µM	0.61 ± 0.1 µM	3.66 ± 0.25 µM	0.9 ± 0.03 µM	–	COc1ccc(/C=C/C(=O)C(COC(C)=O)(COC(C)=O)C(=O)/C=C/c2ccc(OC)c(OC)c2)cc1OC [Compound 44, 2,2-bis((E)-3-(3,4-dimethoxyphenyl)acryloyl)propane-1,3-diyl diacetate]	–	–	–	–	–
6.91 ± 0.67 µM	5.12 ± 0.29 µM	4.21 ± 0.14 µM	–	–	–	–	–	–	2 µM	CCC(CO)(CO)C(=O)Oc1ccc(/C=C/C(=O)/C=C(O)/C=C/c2ccc(OC(=O)C(CC)(CO)CO)c(OC)c2)cc1OC [Compound 22a, ((1E,3Z,6E)-3-Hydroxy-1-oxohepta-1,3,6-triene-1,7-diyl)bis(2-methoxy-4,1-phenylene) bis(2,2-bis(hydroxymethyl)butanoate)]	5.82 ± 0.56 µM	2.4 ± 0.32 µM	1.34 ± 0.04 µM	4.71 ± 0.29 µM	2.56 ± 0.18 µM
≥ 100 µM	67.5 ± 1.25 µM	63.94 ± 0.47 µM	75 ± 3.1 µM	43.7 ± 1.36 µM	82.6 ± 1.67 µM	55.3 ± 3.2 µM	61.3 ± 2.85 µM	64.8 ± 2.39 µM	–	COc1cc(/C=C/C(=O)CC(=O)/C=C/c2ccc(OC(=O)C(CO)(CO)COC(=O)C(CO)(CO)CO)c(OC)c2)ccc1O [Compound 38b]	–	–	–	–	–
7.79 ± 1.42 µM	7.7 ± 0.87 µM	3.14 ± 0.33 µM	8.34 ± 0.83 µM	5.18 ± 0.76 µM	17.5 ± 2.85 µM	6.19 ± 0.04 µM	4.77 ± 0.44 µM	8.9 ± 1.28 µM	–	COc1cc(/C=C/C(=O)/C=C(O)/C=C/c2cc(OC)c(OC(=O)C(C)(CO)CO)c(OC)c2)cc(OC)c1OC(=O)C(C)(CO)CO [Compound 30, ((1E,3Z,6E)-3-hydroxy-5-oxohepta-1,3,6-triene-1,7-diyl)bis(2,6-dimethoxy-4,1-phenylene) bis(3-hydroxy-2-(hydroxymethyl)-2-methylpropanoate)]	–	–	–	–	–
77.2 ± 2.34 µM	61.2 ± 2.3 µM	26.1 ± 0.81 µM	89.65 ± 0.49 µM	7.18 ± 0.68 µM	> 100 µM	9.02 ± 1.13 µM	8 ± 0.6 µM	–	–	COc1ccc(/C=C/C(=O)C(CO)(CO)C(=O)/C=C/c2ccc(OC)c(OC)c2)cc1OC [Compound 42, (1E,6E)-1,7-bis(3,4-dimethoxyphenyl)-4,4-bis(hydroxymethyl)hepta-1,6-diene-3,5-dione]	–	–	–	–	–
2.86 ± 0.83 µM	1.59 ± 0.24 µM	1.84 ± 0.12 µM	5.9 ± 1.87 µM	1.26 ± 0.04 µM	7.6 ± 0.94 µM	2.7 µM	2.71 ± 0.39 µM	2.71 ± 0.23 µM	–	COc1ccc(/C=C/C(=O)C(C)(C)C(=O)/C=C/c2ccc(OC)c(OC(=O)C(C)(CO)CO)c2)cc1OC(=O)C(C)(CO)CO [Compound 37, ((1E,6E)-4,4-Dimethyl-3,5-dioxohepta-1,6-dien-1,7-diyl)bis(2-methoxy-5,1-phenylene) bis(3-hydroxy-2-(hydroxymethyl)-2-methylpropanoate)]	–	–	–	–	–
19.9 ± 1.27 µM	7.49 ± 0.18 µM	4.14 ± 1.1 µM	7.21 ± 0.21 µM	3.51 ± 0.01 µM	8.68 ± 0.07 µM	3.82 ± 0.03 µM	3.67 ± 0.01 µM	7.4 ± 0.63 µM	–	CCc1cc(/C=C/C(=O)CC(=O)/C=C/c2cc(CC)c(OC(=O)C(C)(CO)CO)c(CC)c2)cc(CC)c1OC(=O)C(C)(CO)CO [Compound 31, ((1E,6E)-3,5-dioxohepta-1,6-diene-1,7-diyl)bis(2,6-diethyl-4,1-phenylene) bis(3-hydroxy-2-(hydroxymethyl)-2-methylpropanoate)]	–	–	–	–	–
17.1 ± 1.81 µM	7.49 ± 0.33 µM	3.62 ± 0.11 µM	4.12 ± 0.1 µM	2.63 ± 0.06 µM	7.74 ± 0.41 µM	2.89 µM	3.43 ± 0.2 µM	3.13 ± 0.04 µM	2.98 ± 0.09 µM	CC(CO)(CO)C(=O)Oc1ccc(/C=C/C(=O)C(C)(C)C(=O)/C=C/c2ccc(OC(=O)C(C)(CO)CO)cc2)cc1 [Compound 36, ((1E,6E)-4,4-Dimethyl-3,5-dioxohepta-1,6-diene-1,7-diyl)bis(4,1-phenylene) bis(3-hydroxy-2-(hydroxymethyl)-2-methylpropanoate)]	–	–	–	–	–
67.1 ± 3.39 µM	53.9 ± 3.01 µM	30.2 ± 2.37 µM	8.94 ± 0.66 µM	6.27 ± 0.1 µM	16.6 ± 3.04 µM	7.78 ± 0.09 µM	7.11 ± 0.07 µM	8.6 ± 0.74 µM	–	CC(CO)(CO)C(=O)Oc1ccc(/C=C/C(=O)CC(=O)/C=C/c2ccc(OC(=O)C(C)(CO)CO)c(OC(F)(F)F)c2)cc1OC(F)(F)F [Compound 28, ((1E,6E)-3,5-dioxohepta-1,6-diene-1,7-diyl)bis(2-(trifluoromethoxy)-4,1-phenylene) bis(3-hydroxy-2-(hydroxymethyl)-2-methylpropanoate)]	–	–	–	–	–

SMILES	IC50 [1, 4]	IC50 [1, 5]	IC50 [1, 6]	IC50 [2, 7]	IC50 [2, 8]	IC50 [3, 9]	IC50 [3, 10]	IC50 [2, 11]	IC50 [3, 12]	IC50 [3, 18]	IC50 [2, 13]	IC50 [2, 14]	IC50 [2, 15]	IC50 [3, 16]	IC50 [3, 17]
COc1cc(/C=C/C(=O)C(COC(C)=O)(COC(C)=O)C(=O)/C=C/c2ccc(OC(=O)C(C)(CO)CO)c(OC)c2)ccc1OC(=O)C(C)(CO)CO [Compound 41, ((1E,6E)-4,4-bis(acetoxymethyl)-3,5-dioxohepta-1,6-diene-1,7-diyl)bis(2-methoxy-4,1-phenylene) bis(3-hydroxy-2-(hydroxymethyl)-2-methylpropanoate)]	65.2 ± 1.43 µM	47.4 ± 2.65 µM	32.8 ± 2.7 µM	9.52 ± 0.06 µM	5.4 ± 0.02 µM	57.6 ± 1.59 µM	3.69 ± 0.02 µM	–	–	–	–	–	–	–	–
O=C(/C=C/c1ccc(O)cc1)CC(=O)/C=C/c1ccc(O)cc1 [Bisdemethoxycurcumin, bisdemethoxycurcumin, reference compound]	> 100 µM	28.5 ± 1.09 µM	26.9 ± 4.36 µM	–	–	–	–	–	–	27.5 ± 0.42 µM	> 100 µM	29.6 ± 0.78 µM	23.7 ± 2.43 µM	> 100 µM	26.92 ± 0.19 µM
COc1cc(/C=C/C(=O)C(Cc2ccccc2)(Cc2ccccc2)C(=O)/C=C/c2ccc(OC(=O)C(C)(CO)CO)c(OC)c2)ccc1OC(=O)C(C)(CO)CO [Compound 35c, ((1E,6E)-4,4-Dibenzyl-3,5-dioxohepta-1,6-dine-1,7-diyl)bis(2-methoxy-4,1-phenylene) bis(3-hydroxy-2-(hydroxymethyl)-2-methylpropanoate)]	17.59 ± 0.14 µM	9.09 ± 0.99 µM	7.28 ± 0.5 µM	–	–	–	–	–	–	2.11 ± 0.04 µM	12.9 ± 2.03 µM	7.66 ± 0.61 µM	3.88 ± 0.16 µM	6.03 ± 2.52 µM	2.45 ± 0.24 µM
